Results taken from patent publication US12403132B2, “Methods of treating bone marrow failure syndromes and compositions for use in the same” (The Board of Trustees of the Leland Stanford Junior …, priority 2020, dated 2025).
Like-named read-outs stand apart in the source and are kept apart here.

Key:
[1] = tested on: c-Kit+ erythroid progenitors in murine RPS19-insufficiency; test: c-Kit+ erythroid expansion screen, tet-shRPS19 murine fetal liver cells (Cell titer-Glo); type: cell-based, mouse; conditions: for rescue of c-Kit+ erythroid expansion: 10 μM, murine RPS19-insufficient model; for EC50: read-out: EC50 of rescue of erythroid growth in murine RPS19-insufficiency
CD11b+ myeloid cells = test: CD11b+ myeloid expansion of differentiating human cord blood CD34+ progenitors; type: cell-based
Experimental: FIG. 7. SD208 increases erythroid expansion in human model of DBA through inhibition of NLK and not TGFβ. (a) Differentiating cord blood CD34+ progenitors were transduced with shRNA against luciferase or RPS19 and treated with inhibitors at working concentrations for TGFβ inhibition every three days. Cells were counted and CD235+ erythroid cells were assessed by flow cytometry after 15 days. (b) Prior to flow cytometry, 5000 cells per group were taken from differentiating cultures for NLK kinase assay. (c) CD34+ progenitors were transduced with shRNA against luciferase or RPS19 and non-targeting or siRNA against NLK. After sorting, samples were split into two groups and either treated with vehicle or SD208 every three days. After 15 days cells were counted and subject to flow cytometry to compare the expansion of maturing CD235+ erythroid (left panel) and CD11b+ myeloid cells (right panel). […] Cells were counted and CD235+ erythroid (D—upper) and CD11b+ myeloid cell (D—lower) percentages were determined by flow cytometry. The number of erythroid or myeloid cells is expressed as a percentage of the number of that lineage with no cytokine or drug treatment.
FIG. 9. […] Cells were counted and the percentage expressing CD235+ erythroid (left) and CD11b+ myeloid (right) was determined by flow cytometry. […] Values are expressed as a fold induction relative to untreated. (Panel C) Transduced and sorted CD34+ progenitors were cultured in methylcellulose in the presence or absence of metformin for 16 days and BFU-E erythroid (left) and CFU-GM myeloid (right) colonies scored. […] To directly compare the effect of metformin in each group, metformin-treated cultures were normalized to untreated cultures and are expressed as a fold induction of the untreated control. […]
Cells were incubated with human Fc receptor binding inhibitor (#14-9161-73; eBioscience) followed by primary antibodies CD235-APC (#306607; BioLegend) and CD11b-PE/Cy5 (#101209; BioLegend). Data were collected on a DxP10 flow cytometer (Cytek) and analyzed by using FlowJo Software, v.9.7.2.

miR-208 = test: miRNA expression in vehicle-, metformin- and ginsenoside Rb1-treated HSPCs; type: cell-based, human
Excerpt: The abundance of let-7, miR-30 miR-144 and miR-132 were expressed 40.1-, 2.2-, 5.0- and 18.3-fold higher than miR-208, whereas miR-208 was expressed 1.6- and 2.1-fold higher than miR-199 and miR-499. MiR-26a (induced by metformin) expression was 1.4-fold higher than miR-208.

NC(=O)c1ccc(-c2nc(-c3ccc4c(c3)OCO4)c(-c3ccccn3)[nH]2)cc1 [SB431542]
rescue of c-Kit+ erythroid expansion [1]: significantly rescued | EC50 ([1]; Mus musculus): 5000 nM

Fc1ccc(Cl)cc1-c1nc(Nc2ccncc2)c2nccnc2n1 [SD208]
rescue of c-Kit+ erythroid expansion [1]: significantly rescued | EC50 [1]: 700 nM

CC(C)=CCC[C@](C)(O[C@@H]1O[C@H](CO[C@@H]2O[C@H](CO)[C@@H](O)[C@H](O)[C@H]2O)[C@@H](O)[C@H](O)[C@H]1O)[C@H]1CC[C@]2(C)[C@@H]1[C@H](O)C[C@@H]1[C@@]3(C)CC[C@H](O[C@@H]4O[C@H](CO)[C@@H](O)[C@H](O)[C@H]4O[C@@H]4O[C@H](CO)[C@@H](O)[C@H](O)[C@H]4O)C(C)(C)[C@@H]3CC[C@]12C [ginsenoside Rb1]
impact on CD11b+ myeloid expansion (CD11b+ myeloid cells; control or RPS19-insufficiency): did not impact | induction of miR-208 (miR-208; ginsenoside Rb1-treated HSPCs): 1.9 fold

CN(C)C(=N)N=C(N)N [metformin]
influence on CD11b+ expansion (CD11b+ myeloid cells; 50 mM metformin): negligible influence | induction of miR-499, miR-208, miR-132 (miR-208; metformin-treated HSPCs): None of these miRNAs were induced
